Results taken from US20180371408A1, “CELL CULTURES AND METHODS OF USE” (priority 2017, published 2018).
Read-outs that look alike come from different tables or passages of the source.

Tests used:
[1] = system: testicular co-culture: spermatogonial cells (C18-4), Sertoli cells (TM4), Leydig cells (TM3); test: cells; details: Mus musculus
[2] = system: Spermatogonial cells (C18-4); test: cells; type: cell-based, mouse; details: Mus musculus, read-out: IC50
[3] = system: testicular cell co-culture (C18-4, TM4, TM3); test: High-content image analysis of nuclear morphology and cell number; type: cell-based, mouse
Procedure: (§1) BrdU incorporation, cell fixation, BrdU, and DNA staining followed the previously published protocol (Liang, et al., 2017b). the determination of DNA damage responses and cytoskeleton analysis was conducted after cell fixation. The cells were then permeabilized by a 0.1% Triton X-100 in PBS, and then incubated with a mouse-anti phosphor-histone H2AX (Ser139) (γ-H2AX) overnight at 4° C. […] Finally, prior to acquiring the images, the cells were stained with Alexa Fluor 488 Phallodin for 30 minutes to stain the F-actin (Liang, et al., 2017)
(§2) Multi-channel images were then automatically acquired using an Arrayscan™ VTI HCS reader (Thermo Scientific, MA) with the HCS Studio 2.0 Target Activation BioApplication module. Forty-nine fields per well were acquired at 20× and 40× magnification using a Hamamatsu ROCA-ER digital camera in combination with a 0.63× coupler and Carl Zeiss microscope optics in auto-focus mode. Image smoothing was conducted in order to reduce object fragmentation prior to the primary object identification that takes place in the first channel. Channel one (Ch1) applied the BGRFR 386_23 for Hoechst 33342 that was used for auto-focus, object identification, and segmentation. The border objects were then excluded. Channel two (Ch2) applied applied the BGRFR 549_15, which identified the BrdU staining and BGRFR 485_20 to identify the F-actin staining. BGRFR 650_13 was applied in Channel three (Ch3) and identified the γ-H2AX staining.
(§3) Multi-Channel images were analyzed using HCS Studio™2.0 TargetActivation BioApplication. Multiple parameters of nuclei were characterized in HCA, including nuclei number, nuclear area, shape, and total DNA intensity. Nuclear shape measurements included P2A, a ratio of the nuclear perimeter squared to 4it*nucleus area (perimeter^2/4π*enuclear area) to evaluate nuclear smoothness, and LWR, a ratio of the nuclear length to width, to measure nuclear roundness. For a fairly round and smooth object, the values for P2A and LWR are around 1.0. Total intensity was defined as total pixel intensity within a cell in the respective channel. The total intensities of BrdU, γ-H2AX, and F-actin of the individual cells were also quantified. With forty-nine 20× images acquired from each well, at least 1,000 cells were analyzed per well, and single-cell based data were extracted for further analysis. The experiments were performed with at least four biological replicates and repeated twice.
(§4) Data were presented as mean±standard deviation (SD).

[4] = system: testicular cell co-culture (C18-4, TM4, TM3); test: HCA of F-actin cytoskeleton and γ-H2AX DNA damage response; type: cell-based, mouse; details: for effect on F-actin cord-like structures, in words: FIG. 14A: BPA and BPS 100 μM, BPAF 5 and 15 μM, TBBPA 15 μM, 48 h; for γ-H2AX expression, in words: co-cultures, up to 100 μM; for doses inducing DNA damage response (γ-H2AX): co-culture model
Procedure: as §1, §2, §3, §4

[5] = system: testicular cell co-culture (C18-4, TM4, TM3); test: Machine learning-based HCA phenotype classification (multinucleated cells, M phase, stretching F-actin filaments); type: cell-based, mouse; details: for induction of multinucleated cells, in words: FIG. 12F
Description: Our processing pipeline included cell segmentation, localization, and measurements of multiple features of single cells. This pipeline identified the nuclei from the Hoechst 33342 (nuclei) channel and used the nuclei as primary objects to assist in the identification of secondary objects, which included F-actin and γ-H2AX in each cell. The pipeline (which is freely available from the authors upon request) has the ability to measure over 200 cellular features, including size, shape, intensity, and texture of nuclei, intensity, and texture of F-actin, and intensity of γ-H2AX in a single cell. In order to measure the nuclear area and shape of a cell, multiple features such as object area, perimeter eccentricity and orientation had to be extracted. Object intensity was determined through measurements of various intensity statistics including the integrated intensity, the mean intensity, and the maximal or minimal pixel intensities within an object or on the object's edge. To quantify the object's texture, Haralick texture features derived from the co-occurrence matrix were employed to calculate the occurrence of pairs of pixels with specific intensity values and spatial relationships in an image. The texture features were described by homogeneity, local variation, randomness, and the contrast of object texture. Supervised ML was performed with the CellProfiler Analyst via the “RandomForest Classifier” algorithm (Broad Institute, MA) (Jones et al., 2008). RandomForest is an ensemble learning method that constructs decision trees with an averaged prediction, and is robust in high-dimensional data analysis with low bias (Breiman, 2001).
In the current study, we quantified three key phenotypic changes in the co-culture model. The first change we noticed was the induction of multinucleated cells, a unique toxicity marker for BPAF observed in spermatogonia cells in the previous study, was once again examined in the current co-culture testicular cell model. As depicted in FIG. 10, the multinucleated phenotype was identified as a cell with giant nuclei and irregular nuclear contour. […] Mitotic phenotypes were identified as cells with small condensed nuclei with a round shape (prometaphase), condensed nuclei with shallow concavities (metaphase), and nuclei with separated and aligned chromosomes (anaphase, telophase, and late telophase). […] Cells with phenotypic 3D structure have F-actin bundles stretching across their cytoplasm. During the training process, a small set of unclassified objects were manually sorted into two classes, including non-multinucleated cells or multinucleated cells, cells not in M phases or cells in M phase, and cells with or without stretching F-actin filaments. The maximum number of features was set as 20 in order to generate rules for phenotypic classification, and those features were automatically selected by the RandomForest classifier to capture the subtle differences between the classes. The phenotype classification was based on the images acquired by Arrayscan™ VTI HCS reader, and multiple features were measured by CellProfiler. The input features included values describing nuclei size and shape, DNA intensity and texture, F-actin intensity and texture, and γ-H2AX intensity at the single-cell level. For multinucleated cells and M phase cells, the training set was established by visual examination of the images in the nuclei channel. For a cell with stretching F-actin filaments, initial manual classification during the training process was based on multi-channel images, including nuclei, F-actin and γ-H2AX. The results were presented in terms of the number of cells in predefined classes and total cell number per image field. The field-based data were averaged for the well-based condition.
as §4

[6] = system: testicular co-culture: spermatogonial cells (C18-4), Sertoli cells (TM4), Leydig cells (TM3); details: co-culture; for effect on cell viability (NR uptake), in words: 48 h treatment, FIG. 6; for in vitro call as reproductive toxicant: 48 h, based on cluster analysis
[7] = system: Leydig cells (TM3); test: cells; type: cell-based, mouse; details: Mus musculus, Leydig, read-out: IC50

Row | Structure (SMILES) | IC50 ([1]; 24 h) [µM] | IC50 ([1]; 48 h) [µM] | IC50 ([2]; 24 h) [µM] | IC50 ([2]; 48 h) [µM] | doses with significant increase in nuclear area ([3]; 24, 48, and 72 h) [µM] | doses significantly reducing cell number ([3]; 24 h) [µM] | effect on F-actin cord-like structures, in words [4] | γ-H2AX expression, in words [4] | doses with significant induction of cells in M phase ([5]; 48 and 72 h) [µM] | induction of multinucleated cells, in words [5] | effect on cell viability (NR uptake), in words [6] | IC50 ([7]; 24 h) [µM] | IC50 ([7]; 48 h) [µM] | doses reducing cell number ([3]; 24, 48, and 72 h) [µM] | doses significantly increasing P2A ([3]; 24 and 48 h) [µM] | doses significantly reducing LWR (nuclear roundness) ([3]; 72 h) [µM] | doses significantly reducing P2A (nuclear smoothness) ([3]; 72 h) [µM] | doses inducing DNA damage response (γ-H2AX) [4] [µM] | in vitro call as reproductive toxicant [6] | other results
1 | CC(C)(c1ccc(O)cc1)c1ccc(O)cc1 [BPA, 4,4′-(propane-2,2-diyl) diphenol] | 210 | 186 | 190 | 184 | 100 | 100 | dramatically perturbed these structures | did not induce γ-H2AX expression | 100 | did not induce multinucleation | significant dose-dependent decrease of cell viability | 88 | 80.5 | – | – | – | – | – | – | doses significantly reducing LWR (nuclear roundness) ([3]; 48 and 72 h): ≥ 25 µM; doses significantly reducing LWR (nuclear roundness) ([3]; 24 h): ≥ 50 µM; doses significantly reducing P2A (nuclear smoothness) ([3]; 24 h): 50 µM; doses with significant decrease in nuclear area ([3]; 24 h): ≥ 10 µM; doses with significant increase in F-actin total intensity ([4]; 72 h): 100 µM; doses with significant decrease of cells with stretching F-actin filaments (phenotypic 3D structure) ([5]; 24 h): 100 µM
2 | Oc1ccc(C(c2ccc(O)cc2)(C(F)(F)F)C(F)(F)F)cc1 [BPAF, 4,4′-(Hexafluoroisopropylidene)diphenol] | 78 | 50 | 70 | 58.5 | – | – | dramatically perturbed these structures | – | – | – | – | 30 | 20 | ≥ 2.5 | 5 | 15 | 15 | ≥ 5 | positive | doses significantly increasing LWR ([3]; 24 and 48 h): 5 µM; doses with significant increase in nuclear area ([3]; 24 h): 10 µM; Spearman correlation of total F-actin and γ-H2AX intensity, multinucleated versus non-multinucleated cells ([5]; 5 μM for 24, 48, and 72 h): higher resulting positive correlation; dose significantly inducing multinucleated cells ([5]; 24, 48, and 72 h): 5 µM; doses with significant induction of cells in M phase ([5]; 24 h): 10 µM
3 | O=S(=O)(c1ccc(O)cc1)c1ccc(O)cc1 [BPS, 4,4′-Sulfonyldiphenol] | 574 | 341 | 505 | 357 | – | 100 | induced no notable changes | did not induce γ-H2AX expression | 100 | did not induce multinucleation | significant dose-dependent decrease of cell viability | 435 | ≥ 400 | – | – | – | – | – | positive | doses with significant increase in nuclear area ([3]; 72 h): 100 µM; doses with significant increase in F-actin total intensity ([4]; 24 and 48 h): 100 µM; doses with significant decrease of cells with stretching F-actin filaments (phenotypic 3D structure) ([5]; 72 h): 100 µM
4 | CC(C)(c1cc(Br)c(O)c(Br)c1)c1cc(Br)c(O)c(Br)c1 [TBBPA, 2,2′,6,6′-Tetrabromo-4,4′-isopropylidenediphenol] | 70 | 58 | 74.9 | 55 | 15 | – | dramatically perturbed these structures | – | – | did not induce multinucleation | – | 70 | 60 | ≥ 10 | 15 | 15 | 15 | 15 | positive | IC50 ([1]; read-out: IC50 values (mostly)): ≤ 100 µM; doses with significant induction of cells in M phase ([5]; 24, 48, and 72 h): 15 µM
